This is an account of results in publication PMC9603521, “WYBQ-4: a New Bactericidal Agent against Methicillin-Resistant Staphylococcus aureus” (Microbiology Spectrum, 2022).

The structures appear in SMILES notation. Where two headings read alike, the source gives them in different places.

Assay [1] relates to PBP2a. The following applies: cited from earlier work; for Kd: read-out: ks.
Assay [2] deals with MRSA USA300. The assay is described as follows: TEM analysis of cell morphology / division defects. The class given is cell-based, Staphylococcus aureus. Conditions: 4 μg/mL (1/2× MIC), 3 h. As for the experimental part: MRSA USA300 was cultured overnight, diluted (1:100) into 20 mL of Trypticase soy broth (TSB) medium, and incubated at 30°C with shaking until the optical density at 600 nm (OD600) reached 0.3. […] Bacterial cells treated with 4 μg/mL ceftaroline fosamil (1/2 of their respective MIC) served as a control group. Untreated S. aureus served as a negative control. Bacteria were collected and washed in PBS and resuspended in 4% (vol/vol) glutaraldehyde fixation overnight. The fixed samples were further processed, and morphological changes in S. aureus were observed by TEM (JSM-7900F; JEOL, Japan).

Assay [3] deals with PBP2a (Staphylococcus aureus, UniProt P07944). The assay is described as follows: PBP2a acylation kinetics, nitrocefin competition assay. The class given is biochemical, MRSA. As for the experimental part: Please refer to the supplemental material for the kinetic parameters of the interaction between WYBQ-4 and PBP2a and the determination of the rate of diacylation.
Chain of PBP2a (Staphylococcus aureus, UniProt P07944) (P07944 whole entry): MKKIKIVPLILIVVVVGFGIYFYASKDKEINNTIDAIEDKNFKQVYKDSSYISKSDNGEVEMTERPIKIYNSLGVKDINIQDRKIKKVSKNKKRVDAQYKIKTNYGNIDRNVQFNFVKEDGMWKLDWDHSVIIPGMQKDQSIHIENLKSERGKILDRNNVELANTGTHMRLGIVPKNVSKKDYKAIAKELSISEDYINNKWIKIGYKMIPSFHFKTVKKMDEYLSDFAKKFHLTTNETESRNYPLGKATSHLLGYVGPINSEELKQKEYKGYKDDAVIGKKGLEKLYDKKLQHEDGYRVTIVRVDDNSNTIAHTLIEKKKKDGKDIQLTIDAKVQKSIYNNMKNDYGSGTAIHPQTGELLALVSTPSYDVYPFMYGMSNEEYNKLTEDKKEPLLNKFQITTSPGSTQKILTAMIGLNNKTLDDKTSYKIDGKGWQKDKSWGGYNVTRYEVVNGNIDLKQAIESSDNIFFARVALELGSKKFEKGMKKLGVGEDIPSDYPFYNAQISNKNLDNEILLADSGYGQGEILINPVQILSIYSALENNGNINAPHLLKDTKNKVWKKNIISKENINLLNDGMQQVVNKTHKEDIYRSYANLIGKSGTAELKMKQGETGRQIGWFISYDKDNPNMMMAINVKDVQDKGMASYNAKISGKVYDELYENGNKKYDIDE
Supplementary Method. 1 Determination of the Kinetic Parameters for Interactions of […]
Determination of the kinetic parameters for interactions of WYBQ-4 with PBP2a The kinetic parameters of the interaction of WYBQ-4 with PBP2a were determined as previously described (1). The kinetics of the reaction between PBP2a of MRSA with WYBQ-4 was studied in homogeneous aqueous solution at 37℃ in 25 mM Hepes buffer, pH 7.0, containing 1 M NaCl and the inhibition of PBPs by β-lactams follows this kinetic scheme. […]
In this minimal scheme, E represents PBP2a, EI is the noncovalent preacylation complex, E-I is the covalent acyl-enzyme species, and P denotes the product of E-I hydrolysis and restoration of […]
The typical reactions of β-lactam could be monitored through competition with a chromophoric β-lactam, nitrocefin, or directly in certain cases by fluorescence intensity of protein. In this study, it is proposed to determine the secondary rate constants (k2/Ks) of WYBQ-4 by nitrocefin competition assay. The reaction was conducted in the above buffer, and the reaction system contained PBP2a (2.5 μM) and different concentrations of nitrocefin (20-120 μM). The reaction was carried out in a UV spectrophotometer (PERSEE T600, China) and the change in absorbance at 500 nm was […]
Apparent first-order rate constants for acylation by nitrocefin were determined by fitting the change in absorbance with time to eqn. (1):
A = A0 + ∆εn E0[(1 − exp (−kn∗ t)] + k0N0∆εn Ε0t (1) where A0 is the initial absorbance at 500 nm, ∆εn the change in molar absorption coefficient on nitrocefin hydrolysis (15900 M-1cm-1), E0 the initial enzyme concentration, N0 the initial nitrocefin concentration, kn* the (burst) pseudo-first-order rate constant for acylation of PBP2a by nitrocefin, and k0 the (line) second-order rate constant of a non-specific hydrolysis of nitrocefin in the presence of PBP2a. The second-order rate constants (kn) for acylation were calculated by fitting a plot of the apparent first-order rate constants (kn*) against the concentration of nitrocefin using a linear least-squares method.
Subsequently, nitrocefin (100 μM) was used as a reporter molecule to determine the apparent first-order rate constants for acylation of WYBQ-4 at different concentrations (0-500 μM) in competition assays. In this case, the change in absorbance at 500 nm with time was fitted to eqn.
Α = A + ∆ε E (k∗ ∕ (k∗ + k∗)(1 − exp (−(k∗ + k∗)t)) + k N ∆ε Ε t (2) […]

Assay [4] has as its system MRSA USA300. The assay is described as follows: Mouse systemic infection model. Conditions: USA300 5 × 10^7 CFU, 150 mg/kg, tail intravenous injection at 0 and 3 h, 7-day. The class given is in vivo, mice. As for the experimental part: The S. aureus-induced systemic infection model of mice (6-week-old female C57BL/6J mice) was established as previously described ([46]). […] The mice infected in the same way were treated with physiological saline as an infection control group. The mock group was not infected with S. aureus, and the 7-day mortality of the mice in each group was calculated.

Assay [5] concerns MRSA USA300. The assay can be described thus: Mouse lung infection model, survival. The following applies: mouse pneumonia, USA300 2 × 10^8 CFU, 12-h intervals, within 72 h. The class given is in vivo, mice. As for the experimental part: The animal experiments were performed using 6-week-old male C57BL/6J mice, and the mouse model of lung infection caused by MRSA USA300 was established as previously described ([43], [44]). For the survival rate, mice (10 per group) were infected with MRSA USA300 (2 × 10^8 CFU per mouse). After 2 h of infection, mice were given WYBQ-4 via subcutaneous injection and reinjected at 12-h intervals, whereas mice were treated with ceftaroline fosamil at the same doses and served as positive controls. Mice injected with only MRSA USA300 were used as a negative control. Survival of mice was recorded within 72 h, and survival rates were calculated.

Assay [6] has as its system MRSA USA300. The assay is described as follows: Mouse lung infection model, bacterial load and histopathology. The assay is classed as in vivo, mice. The following applies: mouse pneumonia, USA300; after treatment. As for the experimental part: The mice were challenged with 1 × 10^8 CFU of MRSA USA300 to assess bacterial load and pathological changes. The dose and manner of administration in mice were consistent with the survival experiments. In addition, the mice treated with ceftaroline fosamil at 75 and 37.5 mg/kg were used as control groups. At 48 h postinfection, mice were euthanized, and the left lungs were aseptically removed, weighed, and homogenized. Then, the lung tissues were homogenized and serially diluted for CFU counts. The right lungs were fixed with 10% formalin, embedded in paraffin, thin-sectioned, subjected to conventional hematoxylin and eosin (H&E) staining, and then observed using an optical microscope.

The test system of assay [7] is MSSA ATCC 29213. The assay is described as follows: Postantibiotic effect (viable plate count). Conditions: 1 h exposure. The assay is classed as cell-based, Staphylococcus aureus. As for the experimental part: The postantibiotic effect (PAE) of WYBQ-4 against MSSA 29213 was determined in MHB agar using the viable plate count method ([39]). […] After incubation at 37°C for 1 h, WYBQ-4 was removed by centrifugation and washing with phosphate-buffered saline (PBS). Subsequently, fresh MHB medium was added to resuspend the bacteria, and the mixture was incubated at 37°C with shaking. The number of colonies was counted by taking 10 μL of bacteria at 1-h intervals and applying them to BHI agar plates after appropriate dilution. PAE duration was calculated as follows: time (h) for bacteria to return to log-phase growth after drug treatment – time (h) for the control group to return to log-phase growth ([40]).

The test system of assay [8] is PBP2a. The following applies: as reported; cited from earlier work.

For `CC1(C)S[C@@H]2[C@H](NC(=O)[C@H](N)c3ccccc3)C(=O)N2[C@H]1C(=O)O` [Ampicillin], in assay [1] (PBP2a), the k2 is 3.4 ± 0.1 s^–1 × 10^3, the k2/ks is 5.0 ± 1.0 M^–1s^–1, the k3 is 3.2 ± 0.1 s^–1 × 10^6 and the Kd was 668 ± 124 µM.

With `CCO/N=C(\C(=O)N[C@@H]1C(=O)N2C(C(=O)[O-])=C(Sc3nc(-c4cc[n+](C)cc4)cs3)CS[C@H]12)c1nsc(N)n1` [Ceftaroline], the k2/ks is reported as 4,500 ± 640 M^–1s^–1 in assay [1] (PBP2a acylation) and 4,500 M^–1s^–1 in assay [1] (PBP2a acylation, listed as ceftaroline). For the same molecule, the Kd in assay [1] (PBP2a) was 20 ± 4 µM. In addition, the “Percentage of defective cells (thin cell walls)” value in assay [2] is listed as 71.9%.

For the molecule `CC(C)(O/N=C(\C(=O)N[C@@H]1C(=O)N2C(C(=O)[O-])=C(C[n+]3ccccc3)CS[C@H]12)c1csc(N)n1)C(=O)O` [Ceftazidime], in assay [1] (PBP2a), the k2 is reported as 1.0 ± 0.1 s^–1 × 10^3, the k2/ks is 1.5 ± 0.3 M^–1s^–1, the k3 is 3.2 ± 0.2 s^–1 × 10^6 and the Kd was 671 ± 116 µM.

For `O=C(Cc1cccs1)N[C@@H]1C(=O)N2C(C(=O)O)=C(/C=C/c3ccc([N+](=O)[O-])cc3[N+](=O)[O-])CS[C@H]12` [Nitrocefin], in assay [1] (PBP2a), the k2 was 3.7 ± 0.3 s^–1 × 10^3, the k2/ks is 19.0 ± 3.0 M^–1s^–1, the k3 is 7.2 ± 0.1 s^–1 × 10^6 and the Kd is 192 ± 24 µM. In addition, the “primary reaction rate constant, kn*” value in assay [3] (100 μM nitrocefin, acylation of PBP2a) is listed as “approximately 0.05 s^−1”. Further, the “secondary rate constant, k0, for the nonspecific hydrolysis of nitrocefin” value in assay [3] (in the presence of PBP2a) came out at 2.3 ± 0.14 M⁻¹ s⁻¹.

`CO/N=C(\C(=O)N[C@@H]1C(=O)N2C(C(=O)[O-])=C(C[N+]3(C)CCCC3)CS[C@H]12)c1csc(N)n1` [cefepime]: in assay [1] (PBP2a), the k2 is reported as 1.5 ± 0.1 s^–1 × 10^3, the k2/ks is on record as 0.9 ± 0.1 M^–1s^–1 and the k3 is 5.9 ± 0.5 s^–1 × 10^6. In assay [4], this molecule yielded a survival rate of 40%.

`CCO/N=C(\C(=O)N[C@@H]1C(=O)N2C(C(=O)[O-])=C(Sc3nc(-c4cc[n+](C)cc4)cs3)CS[C@H]12)c1nsc(NP(=O)(O)O)n1` [ceftaroline fosamil, reference compound] had a survival rate in assay [5] (37.5 mg/kg subcutaneous) of 26.67%. Besides, the survival rate in assay [5] (75 mg/kg subcutaneous) came to 76.67%. The “inflammatory signs of lung tissue (H&E histopathology)” value in assay [6] is reported as “significantly reduced”. Further, in assay [2], the “Asymmetry of bacterial division (number of cells)” value stood at 41, the “Distortion of septa (number of cells)” value is recorded as 31, the “Percentage of defective cells (asymmetry of bacterial division)” value turned out to be 46.1 C % and the “Percentage of defective cells (distortion of septa)” value was determined as 34.8 B %. Besides, in assay [2], the “Percentage of defective cells (thin cell walls)” value turned out to be 71.9 C % and the “Thin cell walls (number of cells)” value is 64.

For `CO[C@@]1(NC(=O)C(C(=O)O)c2ccc(O)cc2)C(=O)N2C(C(=O)O)=C(CSc3nnnn3C)CO[C@@H]21` (some centres unmarked) [moxalactam, reference compound], the PAE amounted to 1 h in assay [7] (2× MIC) and 2.5 h in assay [7] (8× MIC). The molecule also yielded a survival rate in assay [4] of 50%.

For the molecule `Cc1onc(-c2ccccc2)c1C(=O)N[C@@H]1C(=O)N2[C@@H]1SC(C)(C)[C@@H]2C(=O)O` [oxacillin], the “IC50 for PBP2a” value in assay [8] is 408 ± 6 µg/mL.
